This passage reports GI50 and TGI results from PubChem BioAssay (NCI).

The structures appear in SMILES notation.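 These data come from cells grown in 96-well plates and exposed to compound for 48 hours at five concentrations. At the GI50, growth is halved. TGI is the concentration that stops growth completely.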 A value given as a limit tells only on which side of the number the result lay.

Test systems include HT29 colon; 786-0 renal; MOLT-4 leukemia; HL-60(TB) leukemia; TK-10 renal; OVCAR-8 ovarian; SNB-75 CNS; OVCAR-4 ovarian; OVCAR-5 ovarian; NCI-H226 lung.
Experiment in all cases: NCI anticancer screen, dose series, 48 h

`Clc1ccc(OCc2nnc3n2N=C(c2ccc(Cl)cc2Cl)CS3)c(Cl)c1`: the GI50 in the assay on HT29 colon was 24.4 µM; with 786-0 renal, 28.5 µM; in the assay on MOLT-4 leukemia, 22.8 µM; in the assay on HL-60(TB) leukemia, 35.6 µM; with TK-10 renal it was 25.1 µM; in the assay with OVCAR-8 ovarian, 27.7 µM. For the same compound, the GI50 is 12.2 µM in the assay on SNB-75 CNS, 28.1 µM in the assay with OVCAR-4 ovarian, 31.4 µM in the assay with OVCAR-5 ovarian and 17.6 µM with NCI-H226 lung. Moreover, the TGI is 83.3 µM in the assay on HT29 colon; 98.8 µM in the assay on 786-0 renal; > 100 µM with MOLT-4 leukemia; > 100 µM with HL-60(TB) leukemia; > 100 µM in the assay with TK-10 renal; 66.2 µM with OVCAR-8 ovarian. The TGI in the assay with SNB-75 CNS was 48.7 µM; in the assay with OVCAR-4 ovarian, > 100 µM; in the assay with OVCAR-5 ovarian it was > 100 µM; in the assay with NCI-H226 lung, 43.2 µM.
On to `COc1ccc2c(-c3cc4ccccc4o3)cc(=O)oc2c1`, for which the TGI in the assay on HT29 colon is > 100 µM; with 786-0 renal, 78.6 µM; with MOLT-4 leukemia, > 100 µM; in the assay on HL-60(TB) leukemia, > 100 µM; in the assay on TK-10 renal it was 50.8 µM; with OVCAR-8 ovarian, > 100 µM. In addition, the TGI with SNB-75 CNS was 47.6 µM; with OVCAR-4 ovarian, 71.8 µM; in the assay with OVCAR-5 ovarian, > 100 µM; in the assay with NCI-H226 lung it was > 100 µM.
For `CC1(C)CCc2cc3c(cc2O1)OCCC3=O`, the TGI in the assay with HT29 colon, in the assay on 786-0 renal, with MOLT-4 leukemia, in the assay on HL-60(TB) leukemia, with TK-10 renal and in the assay on OVCAR-8 ovarian was > 100 µM each time. Moreover, the TGI with SNB-75 CNS, in the assay on OVCAR-4 ovarian, in the assay with OVCAR-5 ovarian and in the assay on NCI-H226 lung was > 100 µM in each case.
As to `CN(C)C(=S)/N=c1\ss/c(=N\S(=O)(=O)c2ccccc2)n1-c1ccccc1`, the TGI in the assay with HT29 colon, with 786-0 renal, with MOLT-4 leukemia, in the assay on HL-60(TB) leukemia, in the assay on TK-10 renal and with OVCAR-8 ovarian was > 100 µM throughout. The TGI in the assay on SNB-75 CNS, in the assay on OVCAR-4 ovarian, in the assay on OVCAR-5 ovarian and in the assay with NCI-H226 lung was > 100 µM each time.
Take `C[C@H]1CCC/C=C/[C@@H]2C[C@H](N)C[C@H]2[C@H](O)/C=C/C(=O)O1`: the GI50 with HT29 colon was > 100 µM; in the assay with 786-0 renal, > 100 µM; in the assay on MOLT-4 leukemia, 77.3 µM; in the assay on HL-60(TB) leukemia it was 98.4 µM; in the assay on TK-10 renal it was > 100 µM; in the assay on OVCAR-8 ovarian, > 100 µM. Moreover, the GI50 with SNB-75 CNS is 39.9 µM; in the assay on OVCAR-4 ovarian it was > 100 µM; in the assay with OVCAR-5 ovarian, > 100 µM; in the assay with NCI-H226 lung, > 100 µM. Moreover, the TGI in the assay on HT29 colon, with 786-0 renal, with MOLT-4 leukemia, with HL-60(TB) leukemia, in the assay with TK-10 renal and in the assay with OVCAR-8 ovarian was > 100 µM in each case. Moreover, the TGI in the assay on SNB-75 CNS, in the assay on OVCAR-4 ovarian, with OVCAR-5 ovarian and in the assay with NCI-H226 lung was > 100 µM in each case.
Consider `COc1cc2c3c(n(CCCN4CCC(N)CC4)c(=O)c2cc1OC)-c1cc2c(cc1C3=O)OCO2`, for which the GI50 in the assay with HT29 colon is 0.621 µM; in the assay on 786-0 renal, 0.763 µM; in the assay on MOLT-4 leukemia, 0.0456 µM; in the assay with HL-60(TB) leukemia, 4.04 µM; with TK-10 renal, 0.774 µM; with OVCAR-8 ovarian, 0.368 µM. Moreover, the GI50 in the assay with SNB-75 CNS was 0.89 µM; in the assay on OVCAR-4 ovarian, 0.211 µM; in the assay with OVCAR-5 ovarian it was 1.45 µM; with NCI-H226 lung it was 0.757 µM. Further, the TGI in the assay on HT29 colon amounted to 9.81 µM; in the assay on 786-0 renal it was 2.38 µM; in the assay on MOLT-4 leukemia, 1.89 µM; with HL-60(TB) leukemia it was 7.87 µM; in the assay with TK-10 renal, 4.36 µM; in the assay on OVCAR-8 ovarian it was 1.51 µM. The TGI came to 5.56 µM in the assay on SNB-75 CNS, 1.27 µM with OVCAR-4 ovarian, 5.15 µM with OVCAR-5 ovarian and 2.95 µM in the assay with NCI-H226 lung.
For `CCN(CCO)CCNc1ccc(C)c2sc3cc(Cl)ccc3c(=O)c12`, the GI50 is 1.28 µM in the assay on HT29 colon; 1.41 µM in the assay with 786-0 renal; 1.27 µM in the assay with MOLT-4 leukemia; 1.56 µM in the assay with HL-60(TB) leukemia; 1.8 µM in the assay on TK-10 renal; 1.78 µM in the assay on OVCAR-8 ovarian. Moreover, the GI50 in the assay with SNB-75 CNS is 1.97 µM; in the assay with OVCAR-4 ovarian it was 2.18 µM; with OVCAR-5 ovarian, 1.59 µM; with NCI-H226 lung it was 1.39 µM. The TGI was 2.62 µM in the assay on HT29 colon; 2.84 µM in the assay on 786-0 renal; 3.01 µM in the assay with MOLT-4 leukemia; 3.55 µM in the assay on HL-60(TB) leukemia; 3.31 µM with TK-10 renal; 3.38 µM with OVCAR-8 ovarian. The TGI in the assay on SNB-75 CNS is 5.44 µM; in the assay on OVCAR-4 ovarian it was 5.15 µM; in the assay with OVCAR-5 ovarian, 3.3 µM; in the assay with NCI-H226 lung, 3.12 µM.
Take `CCCCCC(=O)Oc1ccc(/C(=C(\C)c2ccc(OC)cc2)c2ccc(OCCN3CCCCC3)cc2)cc1`: the GI50 in the assay with HT29 colon was 3.36 µM; with 786-0 renal, 1.98 µM; in the assay on MOLT-4 leukemia, 3.54 µM; in the assay with HL-60(TB) leukemia, 3.98 µM; with TK-10 renal it was 17.5 µM; with OVCAR-8 ovarian, 12.8 µM. Also, the GI50 was 10.2 µM with SNB-75 CNS, 4.95 µM in the assay with OVCAR-4 ovarian, 12.7 µM with OVCAR-5 ovarian and 17.3 µM in the assay with NCI-H226 lung. Also, the TGI was 13.4 µM with HT29 colon; 5.61 µM with 786-0 renal; 18.8 µM in the assay on MOLT-4 leukemia; 17.8 µM in the assay with HL-60(TB) leukemia; 31.8 µM with TK-10 renal; 29.6 µM in the assay with OVCAR-8 ovarian. Moreover, the TGI in the assay on SNB-75 CNS was found to be 26.3 µM; in the assay on OVCAR-4 ovarian it was 18.5 µM; in the assay on OVCAR-5 ovarian, 27 µM; with NCI-H226 lung it was 38.4 µM.
On to `Cc1c(-c2nc(N)nc(C3CC3)c2C)nc(N)nc1C1CC1`, for which the TGI with HT29 colon, in the assay with 786-0 renal, in the assay with MOLT-4 leukemia, in the assay with HL-60(TB) leukemia, with TK-10 renal and in the assay on OVCAR-8 ovarian was > 100 µM each time. Moreover, the TGI with SNB-75 CNS, in the assay on OVCAR-4 ovarian, in the assay on OVCAR-5 ovarian and in the assay with NCI-H226 lung was > 100 µM each time.
